Literature values as cited in patent publication US7833744B2, “Methods to evaluate cytochrome P450 2C19 isoenzyme activity using a breath test” (Cambridge Isotope Laboratories, Inc., priority 2006, dated 2010).

Legend:
CYP2C19 [1] = conditions: PMs vs EMs
CYP2C19 [2] = target: CYP2C19 (Homo sapiens, UniProt P33261); conditions: in EMs
platelets = conditions: healthy volunteers who carry CYP2C19*2 compared to CYP2C19*1*1 genotype

Chain of CYP2C19 (Homo sapiens, UniProt P33261) (P33261 whole entry): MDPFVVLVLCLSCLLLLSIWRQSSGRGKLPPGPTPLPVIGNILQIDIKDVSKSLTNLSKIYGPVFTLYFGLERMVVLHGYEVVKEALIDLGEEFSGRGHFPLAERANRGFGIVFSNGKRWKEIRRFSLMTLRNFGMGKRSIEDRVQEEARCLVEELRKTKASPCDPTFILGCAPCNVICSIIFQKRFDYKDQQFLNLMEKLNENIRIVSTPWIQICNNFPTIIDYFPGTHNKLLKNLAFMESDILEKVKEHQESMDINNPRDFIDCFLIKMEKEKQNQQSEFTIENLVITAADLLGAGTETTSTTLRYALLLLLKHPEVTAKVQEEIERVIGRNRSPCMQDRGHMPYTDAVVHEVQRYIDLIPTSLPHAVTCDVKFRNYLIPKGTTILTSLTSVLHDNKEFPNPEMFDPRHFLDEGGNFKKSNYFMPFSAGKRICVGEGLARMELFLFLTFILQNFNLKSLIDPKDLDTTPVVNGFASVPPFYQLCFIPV

Compound	exposure in PMs relative to EMs of CYP2C19 (CYP2C19 [1])	share of dose cleared by CYP2C19 (CYP2C19 [2])	anti-platelet effect (platelets)
COc1ccc2[nH]c([S+]([O-])Cc3ncc(C)c(OC)c3C)nc2c1 (stereo not shown) [omeprazole]	about six-fold higher	approximately 80%	
COc1ccnc(C[S+]([O-])c2nc3ccc(OC(F)F)cc3[nH]2)c1OC (stereo not shown) [pantoprazole]	about six-fold higher	approximately 80%	
Cc1c(OCC(F)(F)F)ccnc1C[S+]([O-])c1nc2ccccc2[nH]1 (stereo not shown) [lansoprazole]	about six-fold higher	approximately 80%	
COC(=O)[C@H](c1ccccc1Cl)N1CCc2sccc2C1 [clopidogrel]			no anti-platelet effect
